Source: patent US20100016335A1, “NOVEL AMINOPYRIDINE DERIVATIVES HAVING AURORA A SELECTIVE INHIBITORY ACTION” (priority 2006, published 2010)
Counter-ions that a name gives are not always drawn.

Tests used:
[1] = target: T1, human Aurora A (Homo sapiens, UniProt O14965); assay: Aurora A inhibitory activity (IMAP fluorescence polarization phosphorylation assay); format: biochemical; details: 20 μM ATP, 30° C., 120 minutes
T1 construct: His (N); made in house; host or cells: Escherichia coli BL21-CodonPlus(DE3)-RIL
T1 sequence (O14965 1-403): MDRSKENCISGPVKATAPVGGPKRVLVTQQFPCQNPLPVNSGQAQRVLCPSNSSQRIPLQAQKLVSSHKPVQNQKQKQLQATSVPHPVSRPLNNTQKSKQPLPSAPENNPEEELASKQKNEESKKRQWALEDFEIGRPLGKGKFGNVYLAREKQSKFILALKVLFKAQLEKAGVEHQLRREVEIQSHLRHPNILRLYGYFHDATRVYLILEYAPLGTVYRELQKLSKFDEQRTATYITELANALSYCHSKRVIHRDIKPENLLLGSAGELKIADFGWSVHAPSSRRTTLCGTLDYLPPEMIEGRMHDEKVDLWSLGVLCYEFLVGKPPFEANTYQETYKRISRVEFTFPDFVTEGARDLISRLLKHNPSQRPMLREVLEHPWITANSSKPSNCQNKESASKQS
Source text: cDNA of N-terminal His-tagged human Aurora A was integrated into an expression vector, which was then highly expressed in Escherichia coli BL21-CodonPlus(DE3)-RIL cells. The Escherichia coli was harvested and lysed, and then the His-tagged human Aurora A protein was applied onto a nickel chelate column and eluted from the column with imidazole. The active fractions were desalted with a desalting column to give a purified enzyme.
For the phosphorylation reaction, the method by Upstate, Inc. [Kinase Profiler™ Assay Protocols] was referred to, and phosphorylation of the substrate was detected using IMAP® technology (Molecular Devices, Co. Ltd.) (Gaudet E W. et. al, J. Biomol. Screen, 8, 164-175 (2003)). Concretely, the phosphorylation reaction and the detection were carried out as follows:
The phosphorylation reaction was conducted using 384 well plate, and the reaction volume was 10 μl/well. The reaction buffer is comprised of 50 mM Tris-chloride buffer (pH 7.4), 15 mM magnesium acetate, and 0.2 mM ethylenediamine-N,N,N′,N′-tetraacetic acid (EDTA). Thereto, the purified Aurora A protein, 100 nM of the peptide substrate, and 20 μM of adenosine 5′-triphosphate (ATP) were added, and then the reaction was carried out at 30° C. for 120 minutes.
Thereafter, in order to terminate and detect the reaction, 30 μl of the IMAP (registered trademark) binding reagent (IMAP Progressive Binding Reagent, R7284) that had been diluted (1:400) in the 1×IMAP binding buffer A (IMAP Progressive Binding Buffer A, 5× stock, R7282) was added to each well. The solution stood still for 60 minutes in the dark, and then fluorescence polarization was measured using a high-end microplate reader (excitation wavelength: 485 nm; emission wavelength: 520 nm).
(§1) The compound to be tested was added to the reaction system such that a dilution series of the compound in dimethylsulfoxide (DMSO) was prepared, and then 0.5 μL of this solution was added for the testing to each well. Each control well was provided by adding 0.5 μL of DMSO to the well in place of the DMSO solution containing the compound to be tested.

[2] = target: T2, GST-tagged human Aurora B(AurB)/His-tagged human INCENP complex proteins (Homo sapiens, UniProt Q96GD4); assay: Aurora B inhibitory activity (Method A, IMAP assay kit); format: biochemical; details: 40 μM ATP, 25° C., 45 minutes
T2 construct: GST; purchased Carna Biosciences, Inc
T2 sequence (Q96GD4 whole entry): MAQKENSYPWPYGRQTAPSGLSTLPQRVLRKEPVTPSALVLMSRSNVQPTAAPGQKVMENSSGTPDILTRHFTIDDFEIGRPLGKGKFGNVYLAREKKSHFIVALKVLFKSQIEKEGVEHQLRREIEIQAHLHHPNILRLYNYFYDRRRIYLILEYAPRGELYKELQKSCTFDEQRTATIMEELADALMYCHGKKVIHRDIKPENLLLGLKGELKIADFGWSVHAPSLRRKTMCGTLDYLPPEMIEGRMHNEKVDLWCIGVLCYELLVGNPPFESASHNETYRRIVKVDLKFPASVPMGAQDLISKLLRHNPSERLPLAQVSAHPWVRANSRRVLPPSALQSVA
T2 sequence (Q9NQS7 803-916 partner limits assumed): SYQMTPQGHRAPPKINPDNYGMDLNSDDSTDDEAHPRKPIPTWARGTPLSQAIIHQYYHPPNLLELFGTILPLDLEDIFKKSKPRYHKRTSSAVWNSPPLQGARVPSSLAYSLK
Protocol: An assay development kit for IMAP (registered trademark) (Aurora B), purchased from Carna Biosciences, Inc., was used for phosphorylation reaction, and the phosphorylation of a substrate was detected using the IMAP technology. […] Using the same, the phosphorylation reaction was conducted in accordance with a partially revised protocol attached to the kit, and then the phosphorylation of the substrate was detected using the IMAP technology.
For the phosphorylation reaction, 384 well plate was used, and the reaction volume was 10 μl/well. The composition of the reaction buffer (assay buffer) is comprised of 20 mM of HEPES buffer (pH 7.4), 0.01% Tween-20, and 2 mM of dithiothreitol (DTT). Thereto, AurB/INCENP complex protein, 100 nM of the substrate, and 40 μM of ATP, and 1 mM of magnesium salt were added, and then the reaction was conducted at 25° C. for 45 minutes. Thereafter, in order to terminate and detect the reaction, 30 μl of the IMAP (registered trademark) binding reagent (IMAP Progressive Binding Reagent, R7284) that had been diluted (1:400) in the 1× IMAP binding buffer A (IMAP Progressive Binding Buffer A, 5× stock, R7282) was added to each well.
as §1, with “DMSO” for “dimethylsulfoxide (DMSO)”

Structure (SMILES) | IC50 [1] [nM] | IC50 [2] [nM]
Cc1cc(Nc2cc[nH]n2)nc(C[C@]2(c3n[nH]c(=O)o3)CC[C@H](Oc3cccc(Cl)c3F)CC2)n1 [Example 41, 5-(trans-4-(3-chloro-2-fluorophenoxy)-1-((4-methyl-6-(1H-pyrazol-3-ylamino)pyrimidin-2-yl)methyl)cyclohexyl)-1,3,4-oxadiazol-2(3H)-one trifluoroacetate] | 0.18 | 110
O=C(O)[C@]1(Cc2cccc(Nc3cc[nH]n3)n2)CC[C@@H](Oc2cccc(Cl)c2F)CC1 [Example 10, trans-4-(3-chloro-2-fluorophenoxy)-1-((6-(1H-pyrazol-3-ylamino)pyridin-2-yl)methyl)cyclohexanecarboxylic acid trifluoroacetate] | 0.15 | 200
Cc1nnc([C@]2(Cc3cccc(Nc4cc[nH]n4)n3)CC[C@@H](Oc3cccc(C(F)(F)F)c3F)CC2)s1 [Example 28, 6-((trans-4-(2-fluoro-3-(trifluoromethyl)phenoxy)-1-(5-methyl-1,3,4-thiadiazol-2-yl)cyclohexyl)methyl)-N-1H-pyrazol-3-ylpyridin-2-amine] | 3.5 | 710
O=C(O)[C@]1(Cc2cc(Br)cc(Nc3nccs3)n2)CC[C@@H](Oc2cccc(Cl)c2F)CC1 [Example 40, trans-1-((4-bromo-6-(1,3-thiazol-2-ylamino)pyridin-2-yl)methyl)-4-(3-chloro-2-fluorophenoxy)cyclohexanecarboxylic acid hydrochloride] | 0.09 | 95
Fc1c(O[C@H]2CC[C@](Cc3cccc(Nc4cc[nH]n4)n3)(c3n[nH]c(=S)o3)CC2)cccc1C(F)(F)F [Example 42, 5-(trans-4-(2-fluoro-3-(trifluoromethyl)phenoxy)-1-((6-(1H-pyrazol-3-ylamino)pyridin-2-yl)methyl)cyclohexyl)-1,3,4-oxadiazole-2(3H)-thione trifluoroacetate] | 0.23 | 142
Fc1c(Cl)cccc1O[C@H]1CC[C@](Cc2cccc(Nc3cc[nH]n3)n2)(c2nn[nH]n2)CC1 [Example 17, 6-((trans-4-(3-chloro-2-fluorophenoxy)-1-(2H-tetrazol-5-yl)cyclohexyl)methyl)-N-1H-pyrazol-3-ylpyridin-2-amine trifluoroacetate] | 0.45 | 350
N=c1[nH]nc([C@]2(Cc3cccc(Nc4cc[nH]n4)n3)CC[C@@H](Oc3cccc(C(F)(F)F)c3F)CC2)o1 [Example 21, 6-((trans-4-(2-fluoro-3-(trifluoromethyl)phenoxy)-1-(5-imino-4,5-dihydro-1,3,4-oxadiazol-2-yl)cyclohexyl)methyl)-N-1H-pyrazol-3-ylpyridin-2-amine trifluoroacetate] | 2.8 | > 1000
CC(=O)N[C@]1(Cc2cccc(Nc3nccs3)n2)CC[C@@H](Oc2cccc(Cl)c2F)CC1 [Example 19, N-(trans-4-(3-chloro-2-fluorophenoxy)-1-((6-(1,3-thiazol-2-ylamino)pyridin-2-yl)methyl)cyclohexyl)acetamide] | 0.82 | 320
O=C(O)[C@]1(Cc2cccc(Nc3nccs3)n2)CC[C@@H](Oc2cccc(C(F)(F)F)c2)CC1 [Example 7, trans-1-((6-(1,3-thiazol-2-ylamino)pyridin-2-yl)methyl)-4-(3-(trifluoromethyl)phenoxy)cyclohexanecarboxylic acid hydrochloride] | 0.17 | 130
O=C(O)[C@]1(Cc2cccc(Nc3nccs3)n2)CC[C@@H](Oc2cccc(Cl)c2)CC1 [Example 5, trans-4-(3-chlorophenoxy)-1-((6-(1,3-thiazol-2-ylamino)pyridin-2-yl)methyl)cyclohexanecarboxylic acid hydrochloride] | 0.12 | 130
CNC(=O)[C@]1(Cc2cccc(Nc3cc[nH]n3)n2)CC[C@@H](Oc2cccc(Cl)c2F)CC1 [Example 12, trans-4-(3-chloro-2-fluorophenoxy)-N-methyl-1-((6-(1H-pyrazol-3-ylamino)pyridin-2-yl)methyl)cyclohexanecarboxamide] | 2.5 | > 1000
N#C[C@]1(Cc2cccc(Nc3cc[nH]n3)n2)CC[C@@H](Oc2cccc(Cl)c2F)CC1 [Example 16, trans-4-(3-chloro-2-fluorophenoxy)-1-((6-(1H-pyrazol-3-ylamino)pyridin-2-yl)methyl)cyclohexanecarbonitrile] | 1.6 | > 1000
CN(C)C(=O)[C@]1(Cc2cccc(Nc3cc[nH]n3)n2)CC[C@@H](Oc2cccc(Cl)c2F)CC1 [Example 13, trans-4-(3-chloro-2-fluorophenoxy)-N,N-dimethyl-1-((6-(1H-pyrazol-3-ylamino)pyridin-2-yl)methyl)cyclohexanecarboxamide] | 1.3 | > 1000
Cc1nnc([C@]2(Cc3cccc(Nc4cc[nH]n4)n3)CC[C@@H](Oc3cccc(Cl)c3F)CC2)o1 [Example 25, 6-((trans-4-(3-chloro-2-fluorophenoxy)-1-(5-methyl-1,3,4-oxadiazol-2-yl)cyclohexyl)methyl)-N-1H-pyrazol-3-ylpyridin-2-amine] | 0.87 | 690
Fc1c(O[C@H]2CC[C@](Cc3cccc(Nc4cc[nH]n4)n3)(c3nnco3)CC2)cccc1C(F)(F)F [Example 22, 6-((trans-4-(2-fluoro-3-(trifluoromethyl)phenoxy)-1-(1,3,4-oxadiazol-2-yl)cyclohexyl)methyl)-N-1H-pyrazol-3-ylpyridin-2-amine] | 4.1 | > 1000
